# Results taken from patent publication US7915259B2, “Diazabicyclononene derivatives and use thereof” (priority 2005, dated 2011).
# Legend:
# recombinant human renin = biological target: T1, recombinant human renin (Homo sapiens, UniProt P00797); assay: Primary renin inhibition assay: IC50 in buffer, 384 well MTP (Ang I EIA readout); format: biochemical
# T1 sequence (P00797 67-406): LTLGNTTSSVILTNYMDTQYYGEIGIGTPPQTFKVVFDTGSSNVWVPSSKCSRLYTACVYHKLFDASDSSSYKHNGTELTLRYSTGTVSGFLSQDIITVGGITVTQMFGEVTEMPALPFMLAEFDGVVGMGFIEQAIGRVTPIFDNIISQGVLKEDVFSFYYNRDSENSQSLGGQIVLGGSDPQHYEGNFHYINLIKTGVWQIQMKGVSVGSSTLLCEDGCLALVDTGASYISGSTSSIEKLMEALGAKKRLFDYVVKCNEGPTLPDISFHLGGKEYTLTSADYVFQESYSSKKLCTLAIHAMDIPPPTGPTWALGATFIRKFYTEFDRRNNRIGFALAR
# Description: 1. Enzyme Immuno Assay (EIA) to Estimate Ang I Accumulation and Renin Inhibition
# 1.1 Preparation of Ang I-BSA Conjugate
# 1.3 mg (1 μmol) of Ang I [1-10 (Bachem, H-1680)] and 17 mg (0.26 μmol) of BSA (Fluka, 05475) were dissolved in 4 mL of 0.1M phosphate buffer, pH 7.4, after which 2 mL of a 1:100 dilution of glutaraldehyde in H2O (Sigma G-5882) was added dropwise. The mixture was incubated overnight at 4° C., then dialyzed against 2 liters of 0.9% NaCl, twice for 4 h at rt, followed by dialysis against 2 liters of PBS 1× overnight at rt. The solution was then filtered with a Syringe filter, 0.45 μm (Nalgene, Cat. No. 194-2545). The conjugate can be stored in polypropylene tubes in 0.05% sodium azide at 4° C. for at least 12 months.
# 1.2 Preparation of BSA-Ang I Coated MTP […]
# The renin assay was adapted from an assay described before (Fischli W. et al., Hypertension, 1991, 18:22-31) and consists of two steps: in the first step, recombinant human renin is incubated with its substrate (commercial human tetradecapeptide renin substrate) to create the product Angiotensin I (Ang I). In the second step, the accumulated Ang I is measured by an immunological assay (enzyme immuno assay, EIA). […]
# [1] = test system: double transgenic rats with human renin and human angiotensinogen; assay: Hemodynamic measurements (telemetry method) in hypertensive double transgenic rats; format: in vivo, rat; settings: female double transgenic rats
# Description: Hemodynamic Measurements (Telemetry Method)
# Animals—Female double transgenic rats with human renin and human angiotensinogen were purchased from RCC Ltd, Füllingsdorf, Switzerland. All animals were maintained under identical conditions and had free access to normal pelleted rat chow and water. Rats were initially treated with enalapril (1 mg/kg/day) during 2 months. After approximately two weeks following cessation of enalapril treatment the double transgenic rats become hypertensive and reach mean arterial blood pressures in the range of 160-170 mmHg.
# Transmitter implantation—The rats were anaesthetised with a mixture of 90 mg/kg Ketamin-HCl (Ketavet, Parke-Davis, Berlin FRG) and 10 mg/kg xylazin (Rompun, Bayer, Leverkusen, FRG) i.p. The pressure transmitter was implanted under aseptic conditions into the peritoneal cavity with the sensing catheter placed in the descending aorta below the renal arteries pointing upstream. The transmitter was sutured to the abdominal musculature and the skin closed.
# Telemetry-System—Telemetry units were obtained from Data Sciences (St. Paul, Minn.). […] The tip of the catheter was filled with a viscous gel that prevents blood reflux and was coated with an antithrombogenic film to inhibit thrombus formation. The implants (length=2.5 cm, diameter=1.2 cm) weighted 9 g and have a typical battery life of 6 months. A receiver platform (RPC-1, Data Sciences) connected the radio signal to digitized input that was sent to a dedicated personal computer (Compaq, deskpro). Arterial pressures were calibrated by using an input from an ambient-pressure reference (APR-1, Data Sciences). Systolic, mean and diastolic blood pressure was expressed in millimeter of mercury (mmHg).
# […] The effect of the test substance is expressed as maximal decrease of mean arterial pressure (MAP) in the treated group versus the control group.
structure (smiles),measurement,setting,value
"Cc1cc(Cl)c(OCCOc2ccc(C3=C(C(=O)N(Cc4cccc(C)c4C)C4CC4)[C@H]4CNC[C@@H](C3)N4)cc2)c(Cl)c1 [Compound (I′), (1R,5S)-7-{4-[2-(2,6-dichloro-4-methylphenoxy)ethoxy]-phenyl}-3,9-diazabicyclo[3.3.1]non-6-ene-6-carboxylic acid cyclopropyl-(2,3-dimethylbenzyl)amide]",IC50,recombinant human renin,0.3 nM
same,activity in the animal model,[1]; oral,active
same,blood pressure decrease (maximal decrease of mean arterial pressure vs control group),[1]; single oral dose of 3 mg/kg,17 mmHg
same,blood pressure decrease (maximal decrease of mean arterial pressure vs control group),[1]; single oral dose of 10 mg/kg,30 mmHg
